# Legend:
# [1] = system: human PBMC-derived CD4+T cells; experiment: Phosphoproteomic and fucosylated proteomic analyses of CD3/CD28-activated CD4+T cells; format: cell-based; conditions: 250 μM L-fucose
# Protocol: CD4^+T cells cultured and treated as indicated in the main text were harvested and lysed in standard RIPA buffer+protease and phosphatase inhibitors. Protein concentration was estimated by BCA assay (Bio-Rad) and 1 mg lysates were subjected to trypsin digestion. Briefly, lysates were reduced with 4.5 mM dithiothreitol (DTT) for 30 min at 60° C., alkylated with 10 mM iodoacetamide (IAA) at room temperature in the dark for 20 minutes, and digested overnight at 37° C. with 1:20 enzyme-to-protein ratio of trypsin (Worthington). The resulting peptide solution was de-salted using reversed-phase Sep-Pak C18 cartridge (Waters) and lyophilized for 48 hours.
# The lyophilized peptides were enriched for global phosphopeptides (pSTY) using IMAC Fe-NTA magnetic beads (Cell Signaling Technology, #20432). Enrichment were carried out on a KingFisher™ Flex Purification System (Thermo Fisher, #24074441). […]
# On-bead digestion was performed with trypsin and tryptic peptides were then analyzed using a nanoflow ultra-high-performance liquid chromatograph (RSLC, Dionex, Sunnyvale, CA) coupled to an electrospray orbitrap mass spectrometer (Q-Exactive Plus, Thermo, San Jose, CA) for tandem mass spectrometry peptide sequencing. […] MaxQuant software (version 1.6.2.10) was used to identify and quantify the proteins for the DDA runs. […]
# SW1 tumors = experiment: DC clustering by CD11c in SW1 tumors from mice treated +/- L-fucose; conditions: mouse, in vivo
smiles,measurement,setting,value
C[C@H](O)[C@@H](O)[C@@H](O)[C@H](O)C=O [L-fucose],Protein Kinase A (PKA) and actin signaling in CD4+T cells,[1],significantly altering
same,DC clustering by CD11c in SW1 tumors,SW1 tumors,increased DC clustering

# From US20260108547A1, “LEVERAGING L-FUCOSE-MEDIATED SIGNALING TO INDUCE MONOCYTE-DERIVED DENDRITIC CELL POLARIZATION” (H. LEE MOFFITT CANCER CENTER AND RESEARCH INSTITUTE, INC., priority 2022, published 2026)
